For data set [1], the system named is A549. The experiment in a line: Induction of cell cycle arrest in human A549 cells assessed as accumulation at G1 phase by PI staining based flow cytometry. It is filed as functional. On the technique in general: In flow cytometry, cells or beads pass a laser one at a time.
Data set [2] deals with T1, Protein deacetylase HDAC6 (Homo sapiens, UniProt Q9UBN7).
T1 sequence (Q9UBN7 whole entry): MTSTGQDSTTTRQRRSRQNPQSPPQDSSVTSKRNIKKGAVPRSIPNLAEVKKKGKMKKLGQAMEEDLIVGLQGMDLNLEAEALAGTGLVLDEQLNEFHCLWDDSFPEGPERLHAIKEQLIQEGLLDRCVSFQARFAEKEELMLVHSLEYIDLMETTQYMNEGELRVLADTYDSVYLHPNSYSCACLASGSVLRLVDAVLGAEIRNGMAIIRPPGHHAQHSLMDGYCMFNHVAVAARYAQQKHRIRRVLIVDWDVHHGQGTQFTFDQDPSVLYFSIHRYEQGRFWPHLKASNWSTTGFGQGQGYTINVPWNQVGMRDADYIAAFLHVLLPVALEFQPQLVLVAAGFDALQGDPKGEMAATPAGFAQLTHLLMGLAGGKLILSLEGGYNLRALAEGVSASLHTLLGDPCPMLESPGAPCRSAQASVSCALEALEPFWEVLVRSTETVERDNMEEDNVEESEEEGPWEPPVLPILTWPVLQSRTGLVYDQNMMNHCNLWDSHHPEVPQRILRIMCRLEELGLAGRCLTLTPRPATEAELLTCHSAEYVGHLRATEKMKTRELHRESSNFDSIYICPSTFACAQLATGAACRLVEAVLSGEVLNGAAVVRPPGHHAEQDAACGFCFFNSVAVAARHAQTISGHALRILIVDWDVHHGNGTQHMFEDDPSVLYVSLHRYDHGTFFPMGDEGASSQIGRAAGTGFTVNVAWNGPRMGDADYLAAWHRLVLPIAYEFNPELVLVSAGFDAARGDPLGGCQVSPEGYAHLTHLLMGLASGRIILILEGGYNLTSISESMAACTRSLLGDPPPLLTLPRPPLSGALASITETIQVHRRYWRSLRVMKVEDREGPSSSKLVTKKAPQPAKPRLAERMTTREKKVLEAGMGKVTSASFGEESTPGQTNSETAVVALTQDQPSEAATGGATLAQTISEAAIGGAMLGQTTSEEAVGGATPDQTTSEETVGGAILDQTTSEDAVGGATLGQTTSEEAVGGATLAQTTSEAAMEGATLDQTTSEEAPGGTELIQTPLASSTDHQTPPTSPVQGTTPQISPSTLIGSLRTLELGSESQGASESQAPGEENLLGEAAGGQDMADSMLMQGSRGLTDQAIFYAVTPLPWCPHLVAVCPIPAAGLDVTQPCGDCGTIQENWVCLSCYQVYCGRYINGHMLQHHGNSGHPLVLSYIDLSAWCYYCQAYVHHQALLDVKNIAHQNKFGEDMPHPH
Description: Inhibition of HDAC6 (unknown origin) using acetylated-peptide substrate by fluorometric assay.

Data set [3] deals with A549. Description: Induction of cell cycle arrest in human A549 cells assessed as accumulation at G2/M phase by PI staining based flow cytometry. It is filed as functional.
In data set [4] the test system is MDA-MB-231. Description: Anti-cancer activity against human MDA-MB-231 cells assessed as decrease in p53 level at 10 uM incubated for 48 hrs by immunoblot analysis. It is filed as functional, cell-based. In general terms: In western blotting, separated proteins are transferred to a membrane and probed.
In data set [5] the test system is MDA-MB-231. Description: Anti-cancer activity against human MDA-MB-231 cells assessed as decrease in p53 level at 1 to 5 uM incubated for 48 hrs by immunoblot analysis. Format: functional, cell-based. The conditions noted are these: dose 1-5 µM.
The test system of data set [6] is MDA-MB-231. Description: Anti-cancer activity against human MDA-MB-231 cells assessed as decrease in p53 level at 1 to 3 uM incubated for 48 hrs by immunoblot analysis. It is filed as functional, cell-based. The following applies: dose 1-3 µM.
In data set [7] the test system is MDA-MB-231. The experiment in a line: Anti-cancer activity against human MDA-MB-231 cells assessed as decrease in p21 level at 1 to 10 uM incubated for 48 hrs by immunoblot analysis. It is filed as functional, cell-based. The conditions noted are these: dose 1-10 µM.
A short description of data set [8]: Metabolic stability in human hepatocytes assessed as hepatic clearance at 2 uM measured upto 120 min by LC-MS/MS analysis. It is filed as ADME, cell-based, Hepatocyte.
Data set [9] is described as follows: Drug metabolism in human hepatocytes assessed as formation of O-demethylated M6 metabolite conjugated with sulphate at 10 uM by LC-MS/MS analysis. Format: ADME, cell-based, Hepatocyte.
The target in data set [10] is Histone deacetylase 11 (Homo sapiens, UniProt Q96DB2). Description: Inhibition of recombinant human HDAC11 by fluorogenic assay.
Chain of Histone deacetylase 11 (Q96DB2 whole entry): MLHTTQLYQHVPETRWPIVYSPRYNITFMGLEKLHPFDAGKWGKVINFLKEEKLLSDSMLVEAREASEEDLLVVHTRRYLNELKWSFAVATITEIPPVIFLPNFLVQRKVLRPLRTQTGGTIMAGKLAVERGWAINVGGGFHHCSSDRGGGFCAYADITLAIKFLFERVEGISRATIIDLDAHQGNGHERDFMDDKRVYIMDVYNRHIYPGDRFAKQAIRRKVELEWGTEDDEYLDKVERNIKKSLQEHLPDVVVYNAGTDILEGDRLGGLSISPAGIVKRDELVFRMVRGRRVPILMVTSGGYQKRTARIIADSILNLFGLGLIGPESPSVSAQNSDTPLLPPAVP
Data set [11] in a line: Drug metabolism in human hepatocytes assessed as direct glucuronide conjugate M9 metabolite formation at 10 uM by LC-MS/MS analysis. Format: ADME, cell-based, Hepatocyte.
In data set [12] the test system is A549. Description: Antitumor activity against human A549 cells xenografted in athymic nude Crl:NU-Foxn1nu mouse assessed as tumor regression at 30 mg/kg, po administered twice a week for 1 month. The conditions noted are these: time 1.0 months. It is filed as functional, organism-based.
The target in data set [13] is Histone deacetylase 4 (Homo sapiens, UniProt P56524). Description: Inhibition of His/GST-tagged recombinant human HDAC4 by fluorogenic assay.
Data set [14] concerns MDA-MB-231. The experiment in a line: Anti-cancer activity against human MDA-MB-231 cells assessed as decrease in CDK-4 level at 1 to 10 uM incubated for 48 hrs by immunoblot analysis. It is filed as functional, cell-based. The following applies: dose 1-10 µM.
Data set [15] relates to A549. Description: In vivo cytotoxicity against human A549 cells xenografted in athymic nude Crl:NU-Foxn1nu mouse at 15 to 30 mg/kg, po administered twice a week for 1 month. It is filed as functional, organism-based. The conditions noted are these: dose 15-30 mg/kg, time 1.0 months. (A xenograft is tissue or cells of one species grown in another, often human tumour cells in immunodeficient mice.)

The subject of data set [16] is A549. Description: Induction of cell cycle arrest in human A549 cells assessed as accumulation at G2/M phase at 500 nM by PI staining based flow cytometry. It is filed as functional.
In data set [17] the target is Cytochrome P450 1A2 (Homo sapiens, UniProt P05177). The experiment in a line: Inhibition of CYP1A2 in human liver microsomes preincubated for 10 mins followed by NADPH addition measured after 5 mins by LC-MS/MS analysis. Format: ADME, Microsome.
Chain of Cytochrome P450 1A2 (P05177 whole entry): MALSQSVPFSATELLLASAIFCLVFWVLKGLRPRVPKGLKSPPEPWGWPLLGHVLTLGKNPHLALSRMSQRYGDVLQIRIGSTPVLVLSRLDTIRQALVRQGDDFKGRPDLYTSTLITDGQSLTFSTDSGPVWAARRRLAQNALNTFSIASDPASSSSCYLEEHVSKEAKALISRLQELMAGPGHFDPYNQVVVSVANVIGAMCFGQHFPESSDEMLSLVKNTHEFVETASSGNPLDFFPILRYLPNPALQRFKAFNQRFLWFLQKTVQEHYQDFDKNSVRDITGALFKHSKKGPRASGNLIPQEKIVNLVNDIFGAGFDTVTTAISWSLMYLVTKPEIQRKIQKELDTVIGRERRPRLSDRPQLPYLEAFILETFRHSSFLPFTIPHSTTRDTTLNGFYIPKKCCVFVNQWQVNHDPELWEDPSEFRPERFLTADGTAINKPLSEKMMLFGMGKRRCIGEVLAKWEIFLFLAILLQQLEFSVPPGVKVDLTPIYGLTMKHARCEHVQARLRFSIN
In data set [18] the test system is HEK293. The experiment in a line: Antiproliferative activity against HEK293 cells at 10 uM incubated for 48 hrs by MTT assay. It is filed as toxicity, cell-based. The conditions noted are these: human, hek293, 48 h.
The nature of data set [19]: Toxicity in athymic nude Crl:NU-Foxn1nu mouse xenografted with human A549 cells assessed as animal survival at 30 mg/kg, po administered twice a week for 1 month. It is filed as organism-based. The following applies: in vivo, 730 h, time 1 months.
Data set [20] has as its target Histone deacetylase 9 (Homo sapiens, UniProt Q9UKV0). The experiment in a line: Inhibition of His-tagged recombinant human HDAC9 by fluorogenic assay.
Data set [21] concerns MDA-MB-231. The experiment in a line: Anti-cancer activity against human MDA-MB-231 cells assessed as decrease in p53 level at 5 to 10 uM incubated for 48 hrs by immunoblot analysis. Format: functional, cell-based. The following applies: dose 5-10 µM.
The test system of data set [22] is A549. Description: In vivo anti-metastatic activity in human A549 cells xenografted in athymic nude Crl:NU-Foxn1nu mouse assessed as decrease in ZEB1 mRNA level at 30 mg/kg, po administered twice a week for 1 month by qPCR analysis. It is filed as functional, organism-based. The following applies: time 1.0 months.
Data set [23] has as its target Histone deacetylase 3/Nuclear receptor corepressor 2 (HDAC3/NCoR2) (Homo sapiens, UniProt O15379). Description: Inhibition of His/GST-tagged recombinant human HDAC3/NcoR2 by fluorogenic assay. Format: protein-complex assay.
A short description of data set [24]: Drug metabolism in human hepatocytes assessed as O-dealkylation M5 metabolite formation at 10 uM by LC-MS/MS analysis. It is filed as ADME, cell-based, Hepatocyte.

The term IC50 denotes the concentration needed to halve the response being measured.

Calls of active or inactive are those of the source. The calls are words filed in the database; no cut-off is given here. Some results are limits rather than exact numbers.

Chain of Histone deacetylase 3/Nuclear receptor corepressor 2 (HDAC3/NCoR2) (O15379 whole entry): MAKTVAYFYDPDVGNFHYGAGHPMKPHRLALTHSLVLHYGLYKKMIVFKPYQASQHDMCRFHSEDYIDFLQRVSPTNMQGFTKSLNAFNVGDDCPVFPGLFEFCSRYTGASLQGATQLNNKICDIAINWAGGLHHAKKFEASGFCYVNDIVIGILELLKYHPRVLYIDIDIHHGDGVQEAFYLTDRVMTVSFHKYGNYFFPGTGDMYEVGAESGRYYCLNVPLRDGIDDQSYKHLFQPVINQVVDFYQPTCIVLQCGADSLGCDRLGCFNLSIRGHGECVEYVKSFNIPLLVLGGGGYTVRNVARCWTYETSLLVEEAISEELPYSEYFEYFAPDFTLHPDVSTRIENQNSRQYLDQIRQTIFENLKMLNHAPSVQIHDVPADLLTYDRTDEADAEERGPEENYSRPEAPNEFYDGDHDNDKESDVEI
Chain of Histone deacetylase 3/Nuclear receptor corepressor 2 (HDAC3/NCoR2) (Q9Y618 whole entry, further chain): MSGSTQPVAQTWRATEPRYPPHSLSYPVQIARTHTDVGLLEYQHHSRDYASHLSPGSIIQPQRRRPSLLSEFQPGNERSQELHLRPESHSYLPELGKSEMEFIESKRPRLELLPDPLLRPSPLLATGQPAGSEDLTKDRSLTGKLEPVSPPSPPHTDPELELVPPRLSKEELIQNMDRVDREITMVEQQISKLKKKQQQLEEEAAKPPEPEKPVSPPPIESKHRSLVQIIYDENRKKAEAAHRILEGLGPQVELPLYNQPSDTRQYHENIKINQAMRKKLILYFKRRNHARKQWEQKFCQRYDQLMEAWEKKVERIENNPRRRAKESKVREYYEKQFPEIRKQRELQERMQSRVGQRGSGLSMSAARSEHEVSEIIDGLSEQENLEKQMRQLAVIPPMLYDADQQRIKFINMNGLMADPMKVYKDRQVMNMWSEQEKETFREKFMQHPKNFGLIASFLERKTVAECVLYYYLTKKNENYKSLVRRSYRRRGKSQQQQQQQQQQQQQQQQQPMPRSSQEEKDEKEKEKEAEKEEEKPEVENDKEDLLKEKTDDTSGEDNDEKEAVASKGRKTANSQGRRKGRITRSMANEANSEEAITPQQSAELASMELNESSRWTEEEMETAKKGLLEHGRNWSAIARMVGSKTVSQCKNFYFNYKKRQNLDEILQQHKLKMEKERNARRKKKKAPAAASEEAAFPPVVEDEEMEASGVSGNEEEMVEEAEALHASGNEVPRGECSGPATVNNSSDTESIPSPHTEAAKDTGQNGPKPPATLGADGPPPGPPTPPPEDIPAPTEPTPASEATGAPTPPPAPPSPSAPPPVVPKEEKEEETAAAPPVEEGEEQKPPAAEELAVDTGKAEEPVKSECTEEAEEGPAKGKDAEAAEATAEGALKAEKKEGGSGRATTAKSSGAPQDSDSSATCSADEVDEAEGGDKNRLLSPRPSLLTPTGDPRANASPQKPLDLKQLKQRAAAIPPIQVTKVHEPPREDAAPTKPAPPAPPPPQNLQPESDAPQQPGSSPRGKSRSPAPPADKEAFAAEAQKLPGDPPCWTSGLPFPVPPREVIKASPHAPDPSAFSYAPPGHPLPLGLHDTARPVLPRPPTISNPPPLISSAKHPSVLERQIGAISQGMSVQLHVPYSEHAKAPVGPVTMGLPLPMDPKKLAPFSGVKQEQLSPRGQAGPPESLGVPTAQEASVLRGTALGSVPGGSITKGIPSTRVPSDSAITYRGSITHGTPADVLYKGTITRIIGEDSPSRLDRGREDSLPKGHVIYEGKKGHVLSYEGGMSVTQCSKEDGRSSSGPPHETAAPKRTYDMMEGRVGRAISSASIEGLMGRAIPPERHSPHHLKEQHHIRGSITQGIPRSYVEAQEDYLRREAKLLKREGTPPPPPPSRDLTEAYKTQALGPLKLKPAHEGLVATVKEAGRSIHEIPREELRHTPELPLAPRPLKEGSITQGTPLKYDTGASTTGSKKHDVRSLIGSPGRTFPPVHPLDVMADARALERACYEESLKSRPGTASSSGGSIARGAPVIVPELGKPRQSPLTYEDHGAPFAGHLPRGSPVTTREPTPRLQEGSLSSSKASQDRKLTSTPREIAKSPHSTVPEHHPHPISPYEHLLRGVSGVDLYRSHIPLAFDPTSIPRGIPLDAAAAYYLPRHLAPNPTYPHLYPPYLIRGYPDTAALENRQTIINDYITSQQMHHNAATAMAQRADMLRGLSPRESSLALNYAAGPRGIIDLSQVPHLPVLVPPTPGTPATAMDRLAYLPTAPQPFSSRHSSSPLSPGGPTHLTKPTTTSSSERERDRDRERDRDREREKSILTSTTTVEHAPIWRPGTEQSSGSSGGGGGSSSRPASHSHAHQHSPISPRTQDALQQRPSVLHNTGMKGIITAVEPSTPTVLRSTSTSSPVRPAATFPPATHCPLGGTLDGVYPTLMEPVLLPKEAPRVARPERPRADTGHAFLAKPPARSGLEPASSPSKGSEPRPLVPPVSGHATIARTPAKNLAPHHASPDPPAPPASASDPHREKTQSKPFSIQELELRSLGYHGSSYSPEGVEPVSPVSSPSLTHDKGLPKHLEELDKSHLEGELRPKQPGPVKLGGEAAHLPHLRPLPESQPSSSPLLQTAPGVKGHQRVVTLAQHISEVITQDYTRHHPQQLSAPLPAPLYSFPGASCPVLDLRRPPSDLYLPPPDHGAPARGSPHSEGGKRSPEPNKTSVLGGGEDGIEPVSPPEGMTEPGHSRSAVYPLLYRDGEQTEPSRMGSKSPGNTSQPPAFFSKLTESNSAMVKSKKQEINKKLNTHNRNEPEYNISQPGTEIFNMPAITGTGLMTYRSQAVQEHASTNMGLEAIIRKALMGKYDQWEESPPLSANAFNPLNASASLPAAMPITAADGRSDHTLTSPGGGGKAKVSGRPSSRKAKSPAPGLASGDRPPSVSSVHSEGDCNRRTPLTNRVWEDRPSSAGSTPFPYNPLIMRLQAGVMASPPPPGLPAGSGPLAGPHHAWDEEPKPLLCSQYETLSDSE
Chain of Histone deacetylase 9 (Q9UKV0 whole entry): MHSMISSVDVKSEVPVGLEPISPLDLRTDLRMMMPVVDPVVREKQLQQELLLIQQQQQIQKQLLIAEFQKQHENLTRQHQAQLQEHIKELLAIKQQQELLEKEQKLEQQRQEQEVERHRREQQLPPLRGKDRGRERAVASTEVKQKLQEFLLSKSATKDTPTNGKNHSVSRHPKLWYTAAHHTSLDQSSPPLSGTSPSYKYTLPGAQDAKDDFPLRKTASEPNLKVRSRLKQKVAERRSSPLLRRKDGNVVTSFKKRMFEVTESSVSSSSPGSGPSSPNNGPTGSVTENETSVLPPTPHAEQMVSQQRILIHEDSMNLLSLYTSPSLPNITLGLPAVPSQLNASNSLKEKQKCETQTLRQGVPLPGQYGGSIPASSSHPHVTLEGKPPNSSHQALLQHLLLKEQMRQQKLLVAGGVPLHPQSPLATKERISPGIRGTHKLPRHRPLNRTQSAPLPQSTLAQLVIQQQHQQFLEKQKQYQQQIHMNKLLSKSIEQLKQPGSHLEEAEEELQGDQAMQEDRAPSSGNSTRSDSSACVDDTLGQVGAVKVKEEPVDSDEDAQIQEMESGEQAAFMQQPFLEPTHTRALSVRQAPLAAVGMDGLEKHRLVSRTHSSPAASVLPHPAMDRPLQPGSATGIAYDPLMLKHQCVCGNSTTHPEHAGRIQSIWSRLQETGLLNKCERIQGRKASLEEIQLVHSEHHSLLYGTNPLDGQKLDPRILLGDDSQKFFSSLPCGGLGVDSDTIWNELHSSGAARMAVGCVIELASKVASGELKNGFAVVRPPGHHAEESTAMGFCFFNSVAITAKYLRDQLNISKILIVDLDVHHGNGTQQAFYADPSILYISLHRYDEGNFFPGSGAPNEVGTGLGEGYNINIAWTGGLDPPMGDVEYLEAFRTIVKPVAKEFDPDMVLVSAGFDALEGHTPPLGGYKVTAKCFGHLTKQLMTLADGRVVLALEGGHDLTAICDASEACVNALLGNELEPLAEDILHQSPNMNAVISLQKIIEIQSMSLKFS

In the case of `COc1ccc(-c2ccc3ccc(OCCCCCCC(=O)NO)cc3n2)cc1I`, the result in data set [1], in [3] and in data set [5] was Active. Also, the IC50 in data set [2] amounted to 137 nM. In addition, the outcome in data set [4] was inactive.

With `COc1ccc(-c2ccc3cc(OCCCCCC(=O)NO)ccc3n2)cc1`, the outcome in data set [6], in [7], in data set [14], in [15], in data set [16] and in data set [22] was Active. Moreover, the CLhep predicted at 2 µM in data set [8] is 14 mL/min/kg. The Drug metabolism entry in data set [9], in [11] and in data set [24] was “metabolite_detected” in each case. In addition, the IC50 in data set [10] was 58.1 nM; in data set [2] it was 22.9 nM; in data set [13] it was 99 nM; in [17], 4420 nM; in data set [20] it was > 100 nM; in data set [23], 88.3 nM. The Activity entry in [12] is “Active; Exerted Maximum Effect”; in [18], “Non-toxic”; in [19] it was “Non-toxic”. Besides, in data set [21], the outcome was inactive.

These data come from ChEMBL document CHEMBL6121021, “Design and Synthesis of Topoisomerases-Histone Deacetylase Dual Targeted Quinoline-Bridged Hydroxamates as Anticancer Agents” (J Med Chem, 2025).
